Assay results: patent US5852011A, “Benzimidazole derivatives” (Mitsui Chemicals, Inc., priority 1994, dated 1998)
Counter-ions that a name gives are not always drawn. Like-named read-outs stand apart in the source and are kept apart here.

System: mouse B16 melanoma cells
Test: In vitro inhibition of proliferation of tumored cells, mouse B16 melanoma (Test 2)
Assay type: cell-based
Conditions: for IC50: Mus musculus, B16, 72 h, read-out: 50% Inhibition
Procedure: A description will next be made of antitumor activities of these compounds. Their antitumor activities were determined by measuring their in vitro inhibition of proliferation of tumored cells. Namely, mouse B16 melanoma cells were spread over a 96-well culture plate. One day later, each drug was applied. The melanoma cells were then incubated for 3 days in 5% CO2 at 37° C. Following the method reported in Cancer Res., 48, 589-601(1988), the concentration of the drug required to induce 50% inhibition on the proliferation was determined. As a comparative example, the results obtained from the application of distamycin are also shown.

[1] = 3 days in 5% CO2 at 37° C., 96-well plate

Compound | 50% Inhibition [1] | other results
Cn1cc(NC(=O)CC[S+](C)C)cc1-c1nc2cc(C(=O)Nc3ccc(N(CCCl)CCCl)c(F)c3)ccc2[nH]1 [1076 (Cl' salt), 2-[N-[1-Methyl-2-[5-[N-[3-fluoro-4-[N,N-bis(2-chloroethyl)amino]phenyl]]carbamoyl]-1H-benzimidazol-2-ylpyrrol-4-yl]carbamoylethyl-dimethylsulfonium chloride] | 0.45 µg/mL | –
Cn1cc(NC(=O)CCc2ccc(N(CCCl)CCCl)cc2)cc1-c1nc2cc(C(=O)NCCC(=N)N)ccc2[nH]1 [Compound 3, 1H-2-[4-[3-[4-[N,N-Bis(2-chloroethyl)amino]phenyl]propionylamino]-1-methylpyrrol-2-yl]benzimidazole-5-[N-(2-amidinoethyl)]carboxamide hydrochloride] | 0.019 µg/mL | –
Cn1cc(NC(=O)c2ccc(CN(CCCl)CCCl)cc2)cc1-c1nc2cc(C(=O)NCCC(=N)N)ccc2[nH]1 [Compound 14, 1H-2-[4-[4-[N,N-Bis(2-chloroethyl)aminomethyl]benzoylamino]-1-methylpyrrol-2-yl]benzimidazole-5-(N-(2-amidinoethyl)]carboxamide hydrochloride] | 0.57 µg/mL | –
Cn1cc(NC(=O)c2cccc(N(CCCl)CCCl)c2)cc1-c1nc2cc(C(=O)NCCC(=N)N)ccc2[nH]1 [Compound 15, 1H-2-[4-[3-[N,N-bis(2-chloroethyl)amino]benzoylamino]-1-methylpyrrol-2-yl]benzimidazole-5-[N-(2-amidinoethyl)]carboxamide hydrochloride] | 0.057 µg/mL | –
Cn1cc(NC(=O)CCCCCBr)cc1-c1nc2cc(C(=O)NCCC(=N)N)ccc2[nH]1 [Compound 16, hydrochloride] | – | IC50 [1]: 0.6 µg/mL
Cn1cc(NC(=O)c2ccc(N(CCCl)CCCl)cc2)cc1-c1nc2cc(C(=O)NCCN)ccc2[nH]1 [Compound 129, 1H-2-[4-[4-[N,N-Bis(2-chloroethyl)amino]benzoylamino]-1-methylpyrrol-2-yl]benzimidazole-5-[N-(2-aminoethyl)]carboxamide hydrochloride] | 0.18 µg/mL | –
Cn1cc(NC(=O)c2ccc(N(CCCl)CCCl)cc2)cc1-c1nc2cc(C(=O)NCc3cccnc3)ccc2[nH]1 [Compound 223, 1H-2-[4-[4-[N,N-Bis(2-chloroethyl)amino]benzoylamino]-1-methylpyrrol-2-yl]benzimidazole-5-[N-(3-picolyl)]carboxamide hydrochloride] | 1.1 µg/mL | –
Cn1cc(NC(=O)c2ccc(N(CCCl)CCCl)cc2)cc1-c1nc2cc(C(=O)NCc3ccc[n+](C)c3)ccc2[nH]1 [Compound 247, 3-[[1H-2-[4-[4-[N,N-Bis(2-chloroethyl)amino]-benzoylamino]-1-methylpyrrol-2-yl]benzimidazole-5-carboxamido]methyl]-1-methylpyridinium chloride] | 2.6 µg/mL | –
Cn1cc(NC(=O)c2ccc(N(CCBr)CCBr)cc2)cc1-c1nc2cc(C(=O)NCCC(=N)N)ccc2[nH]1 [Compound 260, 1H-2-[4-[4-[N,N-Bis(2-bromoethyl)amino]benzoylamino]-1-methylpyrrol-2-yl]benzimidazole-5-[N-(2-amidinoethyl)]carboxamide hydrochloride] | 0.034 µg/mL | –
Cn1cc(NC(=O)c2ccccc2)cc1-c1nc2cc(C(=O)NCCC(=N)N)ccc2[nH]1 [Compound 326, 1H-2-(4-Benzoylamino-1-methylpyrrol-2-yl)benzimidazole-5-[N-(2-amidinoethyl)]carboxamide hydrochloride] | – | IC50 [1]: 12 µg/mL
CCCCNC(=O)c1ccc2[nH]c(-c3cc(NC(=O)c4ccc(N(CCCl)CCCl)cc4)cn3C)nc2c1 [Compound 336, 1H-2-[4-[4-[N,N-Bis(2-chloroethyl)amino]benzoylamino]-1-methylpyrrol-2-yl]benzimidazole-5-(N-butyl)carboxamide] | 0.24 µg/mL | –
N=C(N)CCNC(=O)c1ccc2[nH]c(-c3csc(NC(=O)CCCc4ccc(N(CCCl)CCCl)cc4)c3)nc2c1 [Compound 424, 1H-2-[2-[4-[4-[N,N-Bis(2-chloroethyl)amino]phenyl]butyrylamino]thiophen-4-yl]benzimidazole-5-[N-(2-amidinoethyl)]carboxamide hydrochloride] | 0.08 µg/mL | –
N=C(N)CCNC(=O)c1ccc2[nH]c(-c3csc(NC(=O)c4ccccc4)c3)nc2c1 [Compound 438, 1H-2-(2-Benzoylaminothiophen-4-yl)benzimidazole-5-[N-(2-amidinoethyl)]carboxamide hydrochloride] | – | IC50 [1]: 42.8 µg/mL
Cn1cc(NC(=O)CNC(=N)N)cc1-c1nc2cc(C(=O)NCCCc3ccc(N(CCCl)CCCl)cc3)ccc2[nH]1 [Compound 1004, 1H-2-[4-(2-Guanidinoacetylamino)-1-methylpyrrol-2-yl]benzimidazole-5-[N-[3-[4-[N,N-bis(2-chloroethyl)amino]phenyl]propyl]]carboxamide hydrochloride] | 0.047 µg/mL | –
CN(C)CCNC(=O)c1cc(N(CCCl)CCCl)ccc1NC(=O)c1ccc2[nH]c(-c3cc(NC(=O)CNC(=N)N)cn3C)nc2c1 [Compound 1042, 1H-2-[1-Methyl-4-(guanidinoacetylamino)pyrrol-2-yl]benzimidazole-5-[N-[2-[N-[(N,N-dimethylamino)ethyl]carboxamido]-4-[N,N-bis(2-chloroethyl)amino]phenyl]]carboxamide dihydrochloride] | 3.49 µg/mL | –
Cn1cc(NC(=O)CNC(=N)N)cc1-c1nc2cc(C(=O)Nc3cccc(N(CCCl)CCCl)c3)ccc2[nH]1 [Compound 1047, 1H-2-[1-Methyl-4-(guanidinoacetylamino)pyrrol-2-yl]benzimidazole-5-[N-[3-[N,N-bis(2-chloroethyl)amino]phenyl]]carboxamide dihydrochloride] | 0.0946 µg/mL | –
CCN(CCCl)c1ccc(NC(=O)c2ccc3[nH]c(-c4cc(NC(=O)CNC(=N)N)cn4C)nc3c2)cc1 [Compound 1048, 1H-2-[1-Methyl-4-(2-guanidinoacetylamino)pyrrol-2-yl]benzimidazol-5-[N-[4-[N-ethyl,N-(2-chloroethyl)amino]phenyl]]carboxamide dihydrochloride] | – | IC50: 5.58 µg/mL
CCN(CCCl)c1cccc(NC(=O)c2ccc3[nH]c(-c4cc(NC(=O)CNC(=N)N)cn4C)nc3c2)c1 [Compound 1049, 1H-2-[1-Methyl-4-(guanidinoacetylamino)pyrrol-2-yl]benzimidazol-5-[N-[3-[N-ethyl,N-(2-chloroethyl)amino]phenyl]]carboxamide hydrochloride] | – | IC50: 0.274 µg/mL
Cn1cc(NC(=O)CC[S+](C)C)cc1-c1nc2cc(C(=O)Nc3ccc(N(CCCl)CCCl)c(Cl)c3)ccc2[nH]1 [Compound 1072, 2-[N-[1-Methyl-2-[5-[N-[3-chloro-4-[N,N-bis(2-chloroethyl)amino]phenyl]]carbamoyl]-1H-benzimidazol-2-yl]pyrrol-4-yl]carbamoylethyl-dimethylsulfonium chloride] | 0.51 µg/mL | –
Cn1cc(NC(=O)CC[S+](C)C)cc1-c1nc2cc(C(=O)Nc3ccc(N(CCCl)CCCl)c(C(F)(F)F)c3)ccc2[nH]1 [Compound 1077, 2-[N-[1-Methyl-2-[5-[N-[3-trifluoromethyl-4-[N,N-bis(2-chloroethyl)amino]phenyl]]carbamoyl]-1H-benzimidazol-2-yl]pyrrol-4-yl]carbamoylethyl-dimethylsulfonium chloride] | 0.29 µg/mL | –
Cc1cc(NC(=O)c2ccc3[nH]c(-c4cc(NC(=O)CCCN(C)C)cn4C)nc3c2)ccc1N(CCCl)CCCl [Compound 1260, 1H-2-[1-Methyl-4-[4-(N,N-dimethylamino)butyrylamino]pyrrol-2-yl]benzimidazole-5-[N-[3-methyl-4-[N,N-bis(2-chloroethyl)amino]phenyl]]carboxamide dihydrochloride] | 3.1 µg/mL | –
Cn1cc(NC(=O)c2ccc[nH]2)cc1-c1nc2cc(C(=O)Nc3ccc(N(CCCl)CCCl)cc3)ccc2[nH]1 [Compound 1480, 1H-2-[1-Methyl-4-(2-pyrrolcarboxamido)pyrrol-2-yl]benzimidazole-5-[N-[4-[N,N-bis(2-chloroethyl)amino]phenyl]]carboxamide hydrochloride] | 0.16 µg/mL | –
Cn1cc(NC(=O)CCCN)cc1-c1nc2cc(C(=O)Nc3ccc(N(CCCl)CCCl)cc3)ccc2[nH]1 [Compound 1488, 1H-2-[4-(4-aminobuturylamino)-1-methylpyrrol-2-yl]benzimidazole-5-[N-[4-[N,N-bis(2-chloroethyl)amino]phenyl]]carboxamide] | 2.85 µg/mL | –
CSCCC(=O)Nc1cc(-c2nc3cc(C(=O)Nc4ccc(N(CCCl)CCCl)cc4)ccc3[nH]2)n(C)c1 [Compound 1520, 1H-2-[1-Methyl-4-[3-(methylthio)propionylamino]pyrrol-2-yl]benzimidazole-5-[N-[4-[N,N-bis(2-chloroethyl)amino]phenyl]]carboxamide] | 0.33 µg/mL | –
CSCCC(=O)Nc1cc(-c2nc3cc(C(=O)Nc4ccc(N(CCCl)CCCl)c(C)c4)ccc3[nH]2)n(C)c1 [Compound 1524, 1H-2-[1-Methyl-4-[3-(methylthio)propionylamino]pyrrol-2-yl]benzimidazole-5-[N-[3-methyl-4-[N,N-bis(2-chloroethyl)amino]phenyl]]carboxamide] | 0.6 µg/mL | –
CSCCC(=O)Nc1cc(-c2nc3cc(C(=O)Nc4ccc(N(CCCl)CCCl)c(F)c4)ccc3[nH]2)n(C)c1 [Compound 1528, 1H-2-[1-Methyl-4-[3-(methylthio)propionylamino]pyrrol-2-yl]benzimidazole-5-[N-[3-fluoro-4-[N,N-bis(2-chloroethyl)amino]phenyl]]carboxamide] | 0.22 µg/mL | –
